Measured values taken from US12103919B2, “3-(5-oxy)-1-oxoisoindolin-2-yl)piperidine-2,6-dione derivatives and uses thereof” (NOVARTIS AG, priority 2021, dated 2024).
Like-named read-outs stand apart in the source and are kept apart here.

Molecular target: T1, WIZ (Homo sapiens, UniProt O95785+Q96SW2)
T1 construct: expressed in transfected cells
Assay: Quantification of WIZ protein levels in HiBit tag fusion protein assay (293T cells)
Type: cell-based
Design: Dmax: dose or concentration left out as unconfirmed
How it was run: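 293T cells stably carrying a single-copy HiBit-WIZ fusion were exposed to compounds for about 18 hours at 37° C., top concentration 25 μM, 10-point 5-fold series. Lysates were complemented with LgBit and luminescence was read. Amax is the DMSO-normalized, curve-fitted percentage of WIZ-HiBit remaining at 25 uM.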

[1] = HEK-293T, read-out: % degradation of WIZ (100 − Amax)
[2] = WIZ HiBit assay in 293T cells, about 18 hours, 10-point 5-fold dilution, top 25 μM; read-out: WIZ AC50
[3] = HEK-293T; DMSO-normalized, curve-fitted percentage of WIZ-HiBit remaining at 25 uM; read-out: WIZ Amax
[4] = HEK-293T; at 25 uM, 100 − Amax; read-out: % degradation of WIZ (100 − Amax)
[5] = DMSO-normalized, curve-fitted percentage of WIZ-HiBit remaining at 25 uM

T1 sequence (O95785 whole entry): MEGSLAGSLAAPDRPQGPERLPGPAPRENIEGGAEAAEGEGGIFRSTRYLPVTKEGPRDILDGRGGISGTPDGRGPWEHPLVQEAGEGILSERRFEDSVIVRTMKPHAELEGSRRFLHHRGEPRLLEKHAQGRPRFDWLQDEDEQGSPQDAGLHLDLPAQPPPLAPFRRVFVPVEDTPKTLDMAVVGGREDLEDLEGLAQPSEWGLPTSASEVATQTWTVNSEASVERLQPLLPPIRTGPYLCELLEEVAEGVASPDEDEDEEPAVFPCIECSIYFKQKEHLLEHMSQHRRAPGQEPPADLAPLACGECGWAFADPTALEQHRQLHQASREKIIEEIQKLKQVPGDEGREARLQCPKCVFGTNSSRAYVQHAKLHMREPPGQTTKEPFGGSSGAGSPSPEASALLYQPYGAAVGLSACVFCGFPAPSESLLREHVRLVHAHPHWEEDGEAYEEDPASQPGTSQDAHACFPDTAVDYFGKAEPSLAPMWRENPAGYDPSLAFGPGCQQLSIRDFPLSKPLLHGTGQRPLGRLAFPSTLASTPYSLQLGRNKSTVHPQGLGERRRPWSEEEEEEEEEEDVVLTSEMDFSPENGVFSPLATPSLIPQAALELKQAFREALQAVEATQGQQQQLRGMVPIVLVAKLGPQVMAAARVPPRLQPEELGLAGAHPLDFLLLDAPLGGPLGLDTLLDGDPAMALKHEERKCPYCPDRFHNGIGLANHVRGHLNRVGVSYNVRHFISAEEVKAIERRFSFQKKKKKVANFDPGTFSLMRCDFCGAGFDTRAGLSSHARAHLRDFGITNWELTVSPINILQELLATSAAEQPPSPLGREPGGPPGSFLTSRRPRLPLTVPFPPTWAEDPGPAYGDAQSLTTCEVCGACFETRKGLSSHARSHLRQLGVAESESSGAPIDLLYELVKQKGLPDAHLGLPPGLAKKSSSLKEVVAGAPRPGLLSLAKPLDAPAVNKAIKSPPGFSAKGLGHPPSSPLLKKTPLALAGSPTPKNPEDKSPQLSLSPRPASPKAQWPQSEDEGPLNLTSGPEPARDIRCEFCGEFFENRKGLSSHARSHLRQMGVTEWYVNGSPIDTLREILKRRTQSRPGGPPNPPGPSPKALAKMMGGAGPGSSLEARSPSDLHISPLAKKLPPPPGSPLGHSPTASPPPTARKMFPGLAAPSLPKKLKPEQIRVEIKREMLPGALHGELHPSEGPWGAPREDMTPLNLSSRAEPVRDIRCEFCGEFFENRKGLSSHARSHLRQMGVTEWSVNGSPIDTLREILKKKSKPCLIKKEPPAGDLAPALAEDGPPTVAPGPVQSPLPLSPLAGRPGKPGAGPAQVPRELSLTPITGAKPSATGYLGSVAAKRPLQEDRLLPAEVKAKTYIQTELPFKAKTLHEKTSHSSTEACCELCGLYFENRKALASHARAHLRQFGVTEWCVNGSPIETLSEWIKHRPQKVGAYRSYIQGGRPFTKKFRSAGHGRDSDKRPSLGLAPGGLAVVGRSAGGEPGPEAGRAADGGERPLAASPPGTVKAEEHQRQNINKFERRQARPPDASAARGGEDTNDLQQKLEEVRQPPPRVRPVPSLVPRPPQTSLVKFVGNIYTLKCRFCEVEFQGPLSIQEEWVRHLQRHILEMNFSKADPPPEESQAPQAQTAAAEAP
T1 sequence (Q96SW2 whole entry): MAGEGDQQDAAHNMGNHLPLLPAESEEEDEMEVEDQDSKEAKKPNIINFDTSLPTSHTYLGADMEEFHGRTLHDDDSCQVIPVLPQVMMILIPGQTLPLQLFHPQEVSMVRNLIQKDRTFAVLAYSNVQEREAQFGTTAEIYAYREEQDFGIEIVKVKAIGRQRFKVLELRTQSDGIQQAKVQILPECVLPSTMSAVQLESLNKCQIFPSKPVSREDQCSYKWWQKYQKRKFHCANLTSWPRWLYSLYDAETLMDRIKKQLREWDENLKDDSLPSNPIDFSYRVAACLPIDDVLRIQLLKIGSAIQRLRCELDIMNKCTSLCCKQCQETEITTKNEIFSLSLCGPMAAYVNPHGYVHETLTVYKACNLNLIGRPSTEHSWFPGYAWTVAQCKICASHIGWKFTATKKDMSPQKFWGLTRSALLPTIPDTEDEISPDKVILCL
T1 sequence (Q16531 whole entry partner): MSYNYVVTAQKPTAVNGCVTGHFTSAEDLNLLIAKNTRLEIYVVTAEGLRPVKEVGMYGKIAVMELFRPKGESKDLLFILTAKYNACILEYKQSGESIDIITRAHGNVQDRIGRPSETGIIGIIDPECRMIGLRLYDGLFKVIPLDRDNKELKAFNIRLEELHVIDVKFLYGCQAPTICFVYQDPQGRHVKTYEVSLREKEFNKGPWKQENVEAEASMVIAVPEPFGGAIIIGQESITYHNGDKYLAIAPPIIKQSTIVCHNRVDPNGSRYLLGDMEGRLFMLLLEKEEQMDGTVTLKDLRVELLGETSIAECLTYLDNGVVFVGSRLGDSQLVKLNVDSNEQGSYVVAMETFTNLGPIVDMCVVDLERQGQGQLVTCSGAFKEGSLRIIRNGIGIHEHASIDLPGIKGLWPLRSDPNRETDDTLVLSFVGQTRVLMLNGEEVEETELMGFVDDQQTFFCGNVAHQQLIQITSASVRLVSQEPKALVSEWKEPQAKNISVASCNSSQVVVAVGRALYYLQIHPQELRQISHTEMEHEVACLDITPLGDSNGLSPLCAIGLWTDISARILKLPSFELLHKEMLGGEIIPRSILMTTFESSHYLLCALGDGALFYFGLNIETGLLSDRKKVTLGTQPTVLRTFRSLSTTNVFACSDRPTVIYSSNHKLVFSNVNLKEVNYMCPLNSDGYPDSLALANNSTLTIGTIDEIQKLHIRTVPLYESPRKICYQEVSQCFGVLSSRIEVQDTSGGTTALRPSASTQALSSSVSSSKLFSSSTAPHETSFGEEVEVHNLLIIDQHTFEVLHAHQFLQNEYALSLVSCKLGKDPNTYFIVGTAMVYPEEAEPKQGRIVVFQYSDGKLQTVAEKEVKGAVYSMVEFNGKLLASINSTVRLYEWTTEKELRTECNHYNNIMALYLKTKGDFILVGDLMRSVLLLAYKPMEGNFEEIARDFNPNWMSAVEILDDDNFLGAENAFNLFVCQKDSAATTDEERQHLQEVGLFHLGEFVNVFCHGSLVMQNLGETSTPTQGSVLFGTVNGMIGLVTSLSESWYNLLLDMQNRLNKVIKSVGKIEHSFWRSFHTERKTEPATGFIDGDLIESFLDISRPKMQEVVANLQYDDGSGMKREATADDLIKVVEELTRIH

SMILES	Dmax [1] [%]	remaining activity at 25 µM (HEK-293T, read-out: WIZ Amax) [%]	DC50 [2] [nM]	remaining activity at 25 µM [3] [%]	Dmax at 25 µM [4] [%]	WIZ Amax [5] [%]	% degradation of WIZ (100 − Amax) (at 25 uM, 100 − Amax) [%]	DC50 (read-out: WIZ AC50; WIZ HiBit assay in 293T cells, about 18 hours, 10-point 5-fold dilution, top 25 μM) [nM]
CCN1C[C@H](OC)C[C@@H](Oc2ccc3c(c2)CN(C2CCC(=O)NC2=O)C3=O)C1 (stereo partly drawn) [Example 64, 3-(5-(((3R,5R)-1-ethyl-5-methoxypiperidin-3-yl)oxy)-1-oxoisoindolin-2-yl)piperidine-2,6-dione]	79.5	20.6	6.3	–	–	–	–	–
C[C@@H]1C[C@@H](Oc2ccc3c(c2)CN(C2CCC(=O)NC2=O)C3=O)CN(S(C)(=O)=O)C1 (stereo partly drawn) [Example 80, 3-(5-(((3R,5R)-5-methyl-1-(methylsulfonyl)piperidin-3-yl)oxy)-1-oxoisoindolin-2-yl)piperidine-2,6-dione]	–	–	23.4	28.6	71.4	–	–	–
CCN1CC[C@H](C)[C@@H](Oc2ccc3c(c2)CN(C2CCC(=O)NC2=O)C3=O)C1 (mixture of isomers) [Example 35, rac-3-(5-(((3R,4S)-1-ethyl-4-methylpiperidin-3-yl)oxy)-1-oxoisoindolin-2-yl)piperidine-2,6-dione]	31.9	68.1	26	–	–	–	–	–
CC1(C)CCC(Oc2ccc3c(c2)CN(C2CCC(=O)NC2=O)C3=O)CN1 (stereo not shown) [Example 88-1, 3-(5-((6,6-dimethylpiperidin-3-yl)oxy)-1-oxoisoindolin-2-yl)piperidine-2,6-dione]	50	50	134	–	–	–	–	–
O=C1CCC(N2Cc3cc(O[C@@H]4CCCN(CC5CCCCC5)C4)ccc3C2=O)C(=O)N1 (stereo partly drawn) [Example 6, 3-(5-(((R)-1-(cyclohexylmethyl)piperidin-3-yl)oxy)-1-oxoisoindolin-2-yl)piperidine-2,6-dione]	–	–	31	86.7	13.3	–	–	–
CCN1C[C@H](O)C[C@@H](Oc2ccc3c(c2)CN(C2CCC(=O)NC2=O)C3=O)C1 (mixture of isomers) [Example 34, rac-3-(5-(((3R,5R)-1-Ethyl-5-hydroxypiperidin-3-yl)oxy)-1-oxoisoindolin-2-yl)piperidine-2,6-dione]	80	20	15	–	–	–	–	–
CCC[C@H]1CC[C@@H](Oc2ccc3c(c2)CN(C2CCC(=O)NC2=O)C3=O)CN1CC (stereo partly drawn) [Example 87-2, 3-(5-(((3R,6S)-1-ethyl-6-propylpiperidin-3-yl)oxy)-1-oxoisoindolin-2-yl)piperidine-2,6-dione]	89.7	10.3	0.6	–	–	–	–	–
CCOC(=O)N1C[C@H](Oc2ccc3c(c2)CN(C2CCC(=O)NC2=O)C3=O)CC[C@@H]1C (stereo partly drawn) [Example 83, ethyl (2S,5R)-5-((2-(2,6-dioxopiperidin-3-yl)-1-oxoisoindolin-5-yl)oxy)-2-methylpiperidine-1-carboxylate]	–	–	> 25000	96.8	3.24	–	–	–
CCN1CC(Oc2ccc3c(c2)CN(C2CCC(=O)NC2=O)C3=O)CC2(CC2)C1 (single isomer, unassigned) [Example 19, 3-(5-((5-ethyl-5-azaspiro[2.5]octan-7-yl)oxy)-1-oxoisoindolin-2-yl)piperidine-2,6-dione]	–	–	12	–	–	37.13	62.87	–
CCO[C@@H]1C[C@@H](Oc2ccc3c(c2)CN(C2CCC(=O)NC2=O)C3=O)CN(C(C)C)C1 (stereo partly drawn) [Example 74, 3-(5-(((3R,5R)-5-ethoxy-1-isopropylpiperidin-3-yl)oxy)-1-oxoisoindolin-2-yl)piperidine-2,6-dione]	–	–	8.9	21.9	78.1	–	–	–
CCN1CCC2(CCC2)C(Oc2ccc3c(c2)CN(C2CCC(=O)NC2=O)C3=O)C1 (racemic) [Example 54, rac-3-(5-((7-ethyl-7-azaspiro[3.5]nonan-5-yl)oxy)-1-oxoisoindolin-2-yl)piperidine-2,6-dione]	–	102	> 25000	–	–	–	–	–
CC[C@@H](C)N1CCC[C@@H](Oc2ccc3c(c2)CN(C2CCC(=O)NC2=O)C3=O)C1 (stereo partly drawn) [Example 32, 3-(5-(((R)-1-((R)-sec-butyl)piperidin-3-yl)oxy)-1-oxoisoindolin-2-yl)piperidine-2,6-dione]	–	–	1.7	19.2	80.8	–	–	–
CCN1C[C@H](OC)C[C@@H](Oc2ccc3c(c2)CN(C2CCC(=O)NC2=O)C3=O)C1 (single isomer, unassigned) [Example 65-1]	–	–	1.4	18.1	81.9	–	–	–
O=C1CCC(N2Cc3cc(O[C@@H]4CCCN(CC5CCC(F)(F)CC5)C4)ccc3C2=O)C(=O)N1 (stereo partly drawn) [Example 5, 3-(5-(((R)-1-((4,4-difluorocyclohexyl)methyl)piperidin-3-yl)oxy)-1-oxoisoindolin-2-yl)piperidine-2,6-dione]	–	–	55	77.3	22.7	–	–	–
CCN1C[C@H](OC)C[C@@H](Oc2ccc3c(c2)CN(C2CCC(=O)NC2=O)C3=O)C1 (single isomer, unassigned) [Example 65-2]	–	–	1.2	–	–	19.67	80.33	–
CC(C)CN1C[C@H](C)C[C@@H](Oc2ccc3c(c2)CN(C2CCC(=O)NC2=O)C3=O)C1 (stereo partly drawn) [Example 79, 3-(5-(((3R,5R)-1-isobutyl-5-methylpiperidin-3-yl)oxy)-1-oxoisoindolin-2-yl)piperidine-2,6-dione]	–	–	1.7	17.3	82.7	–	–	–
CCN1CCCC[C@H](Oc2ccc3c(c2)CN(C2CCC(=O)NC2=O)C3=O)C1 (stereo partly drawn) [Example 37, 3-(5-(((S)-1-ethylazepan-3-yl)oxy)-1-oxoisoindolin-2-yl)piperidine-2,6-dione]	–	103	> 25000	–	–	–	–	–
CC(C)CN1CCC2(CC2)[C@@H](Oc2ccc3c(c2)CN(C2CCC(=O)NC2=O)C3=O)C1 (stereo partly drawn) [Example 16, 3-(5-(((R)-6-isobutyl-6-azaspiro[2.5]octan-4-yl)oxy)-1-oxoisoindolin-2-yl)piperidine-2,6-dione]	–	–	2.5	40.9	59.1	–	–	–
C[C@@H]1C[C@@H](Oc2ccc3c(c2)CN(C2CCC(=O)NC2=O)C3=O)CN(C2CCC2)C1 (stereo partly drawn) [Example 78, 3-(5-(((3R,5R)-1-cyclobutyl-5-methylpiperidin-3-yl)oxy)-1-oxoisoindolin-2-yl)piperidine-2,6-dione]	85.7	14.3	0.5	–	–	–	–	–
CC(C)CN1CCCC[C@@H](Oc2ccc3c(c2)CN(C2CCC(=O)NC2=O)C3=O)C1 (stereo partly drawn) [Example 38, 3-(5-(((R)-1-isobutylazepan-3-yl)oxy)-1-oxoisoindolin-2-yl)piperidine-2,6-dione]	–	–	25	35.6	64.3	–	–	–
CCC[C@H]1CC[C@@H](Oc2ccc3c(c2)CN(C2CCC(=O)NC2=O)C3=O)CN1 (stereo partly drawn) [Example 87-1, 3-(1-oxo-5-(((3R,6S)-6-propylpiperidin-3-yl)oxy)isoindolin-2-yl)piperidine-2,6-dione]	71.4	28.6	35.9	–	–	–	–	–
O=C1CCC(N2Cc3cc(O[C@@H]4CCCN(CC5COC5)C4)ccc3C2=O)C(=O)N1 (stereo partly drawn) [Example 4, 3-(5-(((R)-1-(oxetan-3-ylmethyl)piperidin-3-yl)oxy)-1-oxoisoindolin-2-yl)piperidine-2,6-dione]	–	–	110	64.4	35.6	–	–	–
CC(C)CN1CCC[C@@H](Oc2ccc3c(c2)CN(C2CCC(=O)NC2=O)C3=O)C1 (stereo partly drawn) [Example 3, 3-(5-(((R)-1-isobutylpiperidin-3-yl)oxy)-1-oxoisoindolin-2-yl)piperidine-2,6-dione]	–	–	2	26.8	73.2	–	–	–
CCN1C[C@H](C)C[C@@H](Oc2ccc3c(c2)CN(C2CCC(=O)NC2=O)C3=O)C1 (single isomer, unassigned) [Example 76-2]	–	–	0.6	–	–	12.82	87.18	–
CCN1CCCC[C@@H](Oc2ccc3c(c2)CN(C2CCC(=O)NC2=O)C3=O)C1 (stereo partly drawn) [Example 36, 3-(5-(((R)-1-ethylazepan-3-yl)oxy)-1-oxoisoindolin-2-yl)piperidine-2,6-dione]	67.5	32.5	57	–	–	–	–	–
CCn1cc(CN2CCC[C@@H](Oc3ccc4c(c3)CN(C3CCC(=O)NC3=O)C4=O)C2)cn1 (stereo partly drawn) [Example 14, 3-(5-(((R)-1-((1-ethyl-1H-pyrazol-4-yl)methyl)piperidin-3-yl)oxy)-1-oxoisoindolin-2-yl)piperidine-2,6-dione]	59.3	40.7	–	–	–	–	–	57
O=C1CCC(N2Cc3cc(O[C@@H]4CCCN(C5CCCCC5)C4)ccc3C2=O)C(=O)N1 (stereo partly drawn) [Example 43, 3-(5-(((R)-1-cyclohexylpiperidin-3-yl)oxy)-1-oxoisoindolin-2-yl)piperidine-2,6-dione]	–	–	3.7	28.1	71.9	–	–	–
CCO[C@@H]1C[C@@H](Oc2ccc3c(c2)CN(C2CCC(=O)NC2=O)C3=O)CN(C2CCC2)C1 (stereo partly drawn) [Example 73, 3-(5-(((3R,5R)-1-cyclobutyl-5-ethoxypiperidin-3-yl)oxy)-1-oxoisoindolin-2-yl)piperidine-2,6-dione]	62.8	37.2	23.8	–	–	–	–	–
